Results taken from PubChem BioAssay (NCI).
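Five compound concentrations were applied to cells in 96-well plates for 48 hours; endpoints were derived by simple linear interpolation of the resulting dose-response curve. The concentration for full growth arrest is given as TGI.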 Where a SMILES comes first, the peptide text is derived from it. The star is where a group is joined. OSu = O=C1CCC(=O)N1O*

The compounds below were run on A498 renal (assay: DTP human tumour cell line panel, 48 h).

SMILES | TGI [µM]
C=C(C)C12OC1[C@@]1(C)C(=CC2=O)CCC(O)[C@@H]1C (stereo partly specified) | 62.5
Cc1ccc(-[n+]2cc([O-])on2)cc1 | > 100
C(=C/CCCN1O[C@@H](CCCCCCCCc2cccnc2)[C@H]2CCC[C@H]21)/CCCCCCCCCc1cccnc1 | 45.5
NCCCCC(NC(=O)C(N)Cc1ccc(O)cc1)C(=O)NC(CCCCN)C(=O)NC(CCCCN)C(=O)ON1C(=O)CCC1=O (stereo unspecified) (H-YKKK-OSu; configuration not given here) | > 100
Cc1ccc(S(=O)(=O)N2CC2CCCCC=O)cc1 (stereo unspecified) | > 100

What follows are compounds tested on U251 CNS (assay: DTP human tumour cell line panel, 48 h).

SMILES | TGI [µM]
C=C(C)C12OC1[C@@]1(C)C(=CC2=O)CCC(O)[C@@H]1C (stereo partly specified) | 14.4
CCOC(=O)c1nnn(CCCCO)c1C(=O)OCC | > 100
Cc1ccc(-[n+]2cc([O-])on2)cc1 | > 100
C(=C/CCCN1O[C@@H](CCCCCCCCc2cccnc2)[C@H]2CCC[C@H]21)/CCCCCCCCCc1cccnc1 | 34.5
NCCCCC(NC(=O)C(N)Cc1ccc(O)cc1)C(=O)NC(CCCCN)C(=O)NC(CCCCN)C(=O)ON1C(=O)CCC1=O (stereo unspecified) (H-YKKK-OSu; configuration not given here) | > 100
Cc1ccc(S(=O)(=O)N2CC2CCCCC=O)cc1 (stereo unspecified) | > 100
NC(N)=NS(=O)(=O)c1ccc(N=Nc2c(O)c(C(=O)O)cc3ccccc23)cc1 | > 100

These compounds were tested on HOP-62 NSCLC (assay: DTP human tumour cell line panel, 48 h).

SMILES | TGI [µM]
C=C(C)C12OC1[C@@]1(C)C(=CC2=O)CCC(O)[C@@H]1C (stereo partly specified) | 11.7
CCOC(=O)c1nnn(CCCCO)c1C(=O)OCC | > 100
Cc1ccc(-[n+]2cc([O-])on2)cc1 | > 100
C(=C/CCCN1O[C@@H](CCCCCCCCc2cccnc2)[C@H]2CCC[C@H]21)/CCCCCCCCCc1cccnc1 | 49.3
NCCCCC(NC(=O)C(N)Cc1ccc(O)cc1)C(=O)NC(CCCCN)C(=O)NC(CCCCN)C(=O)ON1C(=O)CCC1=O (stereo unspecified) (H-YKKK-OSu; configuration not given here) | > 100
Cc1ccc(S(=O)(=O)N2CC2CCCCC=O)cc1 (stereo unspecified) | > 100
NC(N)=NS(=O)(=O)c1ccc(N=Nc2c(O)c(C(=O)O)cc3ccccc23)cc1 | > 100

These compounds were tested on PC-3 prostate (assay: DTP human tumour cell line panel, 48 h).

SMILES | TGI [µM]
C=C(C)C12OC1[C@@]1(C)C(=CC2=O)CCC(O)[C@@H]1C (stereo partly specified) | 27.8
CCOC(=O)c1nnn(CCCCO)c1C(=O)OCC | > 100
Cc1ccc(-[n+]2cc([O-])on2)cc1 | > 100
C(=C/CCCN1O[C@@H](CCCCCCCCc2cccnc2)[C@H]2CCC[C@H]21)/CCCCCCCCCc1cccnc1 | 46.1
NCCCCC(NC(=O)C(N)Cc1ccc(O)cc1)C(=O)NC(CCCCN)C(=O)NC(CCCCN)C(=O)ON1C(=O)CCC1=O (stereo unspecified) (H-YKKK-OSu; configuration not given here) | > 100
Cc1ccc(S(=O)(=O)N2CC2CCCCC=O)cc1 (stereo unspecified) | > 100
NC(N)=NS(=O)(=O)c1ccc(N=Nc2c(O)c(C(=O)O)cc3ccccc23)cc1 | > 100

These compounds were tested on SF-295 CNS (assay: DTP human tumour cell line panel, 48 h).

SMILES | TGI [µM]
C=C(C)C12OC1[C@@]1(C)C(=CC2=O)CCC(O)[C@@H]1C (stereo partly specified) | > 100
CCOC(=O)c1nnn(CCCCO)c1C(=O)OCC | > 100
Cc1ccc(-[n+]2cc([O-])on2)cc1 | > 100
C(=C/CCCN1O[C@@H](CCCCCCCCc2cccnc2)[C@H]2CCC[C@H]21)/CCCCCCCCCc1cccnc1 | 41.9
Cc1ccc(S(=O)(=O)N2CC2CCCCC=O)cc1 (stereo unspecified) | > 100
NC(N)=NS(=O)(=O)c1ccc(N=Nc2c(O)c(C(=O)O)cc3ccccc23)cc1 | > 100

The compounds below were run on MALME-3M melanoma (assay: DTP human tumour cell line panel, 48 h).

SMILES | TGI [µM]
C=C(C)C12OC1[C@@]1(C)C(=CC2=O)CCC(O)[C@@H]1C (stereo partly specified) | 25.1
CCOC(=O)c1nnn(CCCCO)c1C(=O)OCC | > 100
Cc1ccc(-[n+]2cc([O-])on2)cc1 | > 100
C(=C/CCCN1O[C@@H](CCCCCCCCc2cccnc2)[C@H]2CCC[C@H]21)/CCCCCCCCCc1cccnc1 | 33.9
NCCCCC(NC(=O)C(N)Cc1ccc(O)cc1)C(=O)NC(CCCCN)C(=O)NC(CCCCN)C(=O)ON1C(=O)CCC1=O (stereo unspecified) (H-YKKK-OSu; configuration not given here) | > 100
Cc1ccc(S(=O)(=O)N2CC2CCCCC=O)cc1 (stereo unspecified) | > 100
NC(N)=NS(=O)(=O)c1ccc(N=Nc2c(O)c(C(=O)O)cc3ccccc23)cc1 | > 100

The compounds below were run on CAKI-1 renal (assay: DTP human tumour cell line panel, 48 h).

SMILES | TGI [µM]
C=C(C)C12OC1[C@@]1(C)C(=CC2=O)CCC(O)[C@@H]1C (stereo partly specified) | 3
CCOC(=O)c1nnn(CCCCO)c1C(=O)OCC | > 100
Cc1ccc(-[n+]2cc([O-])on2)cc1 | > 100
C(=C/CCCN1O[C@@H](CCCCCCCCc2cccnc2)[C@H]2CCC[C@H]21)/CCCCCCCCCc1cccnc1 | 33.1
Cc1ccc(S(=O)(=O)N2CC2CCCCC=O)cc1 (stereo unspecified) | > 100
NC(N)=NS(=O)(=O)c1ccc(N=Nc2c(O)c(C(=O)O)cc3ccccc23)cc1 | > 100

These compounds were tested on KM12 colon (assay: DTP human tumour cell line panel, 48 h).

SMILES | TGI [µM]
C=C(C)C12OC1[C@@]1(C)C(=CC2=O)CCC(O)[C@@H]1C (stereo partly specified) | 16.7
